Test system: hypertensive subjects
Assay: Seated automated office blood pressure (AOBP) in randomized, placebo-controlled, dose-ranging study
Assay type: in vivo, human
Settings: Part 1, 100 mg QD
Protocol: A randomized, double-blinded, placebo-controlled, dose-ranging, multicenter study was conducted to evaluate the effect of orally administered Compound A HBr on blood pressure for the treatment of hypertension in male and female subjects ≥18 years of age.
The study consists of two parts. For enrollment into Part 1 of the study, a subject's value of plasma renin activity (PRA) must be ≤1 ng/mL/h based on morning measurement. If the value of PRA >1 ng/mL/h based on morning measurement, then subjects may be eligible to enter Part 2 of the study.
For Part 1, 163 enrolled subjects ≥18 years of age were randomized into 6 equal treatment groups (1:1:1:1:1:1) to 12.5 mg BID, 25 mg BID, 12.5 mg QD, 50 mg QD, 100 mg QD, or placebo. After a review of interim clinical data, the 2 lowest dose levels (12.5 mg QD and 12.5 mg BID) were stopped for future randomization due to a lack of consistent meaningful reduction of blood pressure, but the patients randomized to that point remained in the study through completion. Thus, after the review of interim clinical data, subjects were randomized into 4 equal treatment groups (1:1:1:1) to 25 mg BID, 50 mg QD, 100 mg QD, or placebo.
For Part 2, 36 enrolled subjects ≥18 years of age were randomized (5:1) to either 100 mg QD Compound A HBr or placebo such that the Compound A HBr treatment group consisted of approximately 30 subjects and the placebo treatment group will consist of approximately 6 subjects.
Subjects orally administered the assigned study drug (Compound A HBr or placebo) according to the assigned dosing regimen for 8 weeks beginning on Study Day 1. All subjects in Part 1 (regardless of dosing group) received BID dosing to preserve the integrity of the blind; active drug is administered as the morning dose for all QD dose groups. Subjects returned to the research facility or were seen by the clinical investigator or approved home health care professional at the end of Study Weeks 1, 2, 3, 4, 5, 6, 7, and 8 (±2 days) for protocol-defined efficacy and safety assessments and procedures, assessment of adverse events (AEs), and confirmation of compliance with study drug usage. Subjects also completed a telephone visit and blood pressure (BP) check at home approximately 3 days post last dose of study drug. Subjects attended up to 14 full clinic visits, including a pre-Screening visit, a Screening/start of Placebo Run-in visit, a second visit during Placebo Run-in, a clinic visit to initiate the ABPM procedure, a Randomization visit, 8 weekly visits during double-blind treatment, and an end-of-study visit scheduled 4 weeks after the last study treatment for final efficacy and safety assessments.
An automated oscillometric sphygmomanometer device was used to measure the subjects' systolic and diastolic blood pressure in office after approximately 5 minutes of rest in the seated position.
The primary endpoint is the change in office-measured (mean of last 2 of 5 unattended measurements using an automated oscillometric sphygmomanometer device after approximately 5 minutes of rest in the seated position) systolic blood pressure (SBP) from baseline to the end of Study Week 8.
Secondary endpoints of this study were: • (a) Change in 24-hour ambulatory blood pressure monitoring (ABPM) parameters (systolic and diastolic) from baseline to the end of Study Week 7. • (b) Change in office-measured SBP from baseline to the end of Study Weeks 1, 2, 3, 4, 5, 6, and 7. • (c) Change in office-measured diastolic blood pressure (DBP) from baseline to the end of Study Weeks 1, 2, 3, 4, 5, 6, 7, and 8. • (d) Proportion of subjects who achieve office-measured BP of ≤130/80 mm Hg by the end of Study Week 8.

[1] = Systolic Blood Pressure Tertile at Baseline High
[2] = Systolic Blood Pressure Tertile at Baseline Low
[3] = Systolic Blood Pressure Tertile at Baseline Middle
[4] = Thiazide Diuretic Use at Baseline No

SMILES: CC(=O)N[C@H]1CC[C@H](NC(=O)CN2CCN(c3nncc(-c4ccc(C)cc4)n3)CC2)CC1 [Compound A HBr]
- Mean (SD) Automated Office-Measured Diastolic Blood Pressure at Wk 8 (Age ≥80 yr): 65.75 (11.73) mmHg
- Mean (SD) Automated Office-Measured Systolic Blood Pressure at Wk 8 (Age ≥80 yr): 125.00 (8.04) mmHg
- Mean (SD) Change from Baseline at Week 8 in Automated Office-Measured Diastolic Blood Pressure (Age ≥80 yr): −4.75 (8.03) mmHg
- Mean (SD) Change from Baseline at Week 8 in Automated Office-Measured Systolic Blood Pressure (Age ≥80 yr): −18.13 (12.34) mmHg
- Mean (SD) Automated Office-Measured Diastolic Blood Pressure at Wk 8 (BMI 25−30 kg/m^2): 72.67 (9.33) mmHg
- Mean (SD) Change from Baseline at Week 8 in Automated Office-Measured Diastolic Blood Pressure (BMI 25−30 kg/m^2): −6.50 (7.61) mmHg
- Mean (SD) Automated Office-Measured Diastolic Blood Pressure at Wk 8 (BMI <25 kg/m^2): 78.33 (19.14) mmHg
- Mean (SD) Change from Baseline at Week 8 in Automated Office-Measured Diastolic Blood Pressure (BMI <25 kg/m^2): −0.67 (7.01) mmHg
- Mean (SD) Automated Office-Measured Diastolic Blood Pressure at Wk 8 (BMI >30 kg/m^2): 71.42 (7.10) mmHg
- Mean (SD) Change from Baseline at Week 8 in Automated Office-Measured Diastolic Blood Pressure (BMI >30 kg/m^2): −6.88 (7.81) mmHg
- Mean (SD) Automated Office-Measured Systolic Blood Pressure at Wk 8 (BMI at baseline 25-30 kg/m^2): 129.67 (10.05) mmHg
- Mean (SD) Change from Baseline at Week 8 in Automated Office-Measured Systolic Blood Pressure (BMI at baseline 25-30 kg/m^2): −11.17 (11.94) mmHg
- Mean (SD) Automated Office-Measured Systolic Blood Pressure at Wk 8 (BMI at baseline <25 kg/m^2): 146.00 (18.33) mmHg
- Mean (SD) Change from Baseline at Week 8 in Automated Office-Measured Systolic Blood Pressure (BMI at baseline <25 kg/m^2): −7.83 (17.47) mmHg
- Mean (SD) Automated Office-Measured Systolic Blood Pressure at Wk 8 (BMI at baseline >30 kg/m^2): 129.00 (15.28) mmHg
- Mean (SD) Change from Baseline at Week 8 in Automated Office-Measured Systolic Blood Pressure (BMI at baseline >30 kg/m^2): −18.50 (13.40) mmHg
- Mean (SD) Automated Office-Measured Diastolic Blood Pressure at Wk 8 (Race Black or AA): 71.92 (10.83) mmHg
- Mean (SD) Automated Office-Measured Systolic Blood Pressure at Wk 8 (Race Black or AA): 129.92 (16.18) mmHg
- Mean (SD) Change from Baseline at Week 8 in Automated Office-Measured Diastolic Blood Pressure (Race Black or AA): −7.38 (7.65) mmHg
- Mean (SD) Change from Baseline at Week 8 in Automated Office-Measured Systolic Blood Pressure (Race Black or AA): −17.13 (11.55) mmHg
- Mean (SD) Automated Office-Measured Diastolic Blood Pressure at Wk 8 (Race Other): 74.00 (8.26) mmHg
- Mean (SD) Automated Office-Measured Systolic Blood Pressure at Wk 8 (Race Other): 132.54 (12.47) mmHg
- Mean (SD) Change from Baseline at Week 8 in Automated Office-Measured Diastolic Blood Pressure (Race Other): −3.69 (7.91) mmHg
- Mean (SD) Change from Baseline at Week 8 in Automated Office-Measured Systolic Blood Pressure (Race Other): −11.27 (14.54) mmHg
- Mean (SD) Automated Office-Measured Diastolic Blood Pressure at Wk 8 (Seated SBP Tertile High): 72.11 (11.78) mmHg
- Mean (SD) Change from Baseline at Week 8 in Automated Office-Measured Diastolic Blood Pressure (Seated SBP Tertile High): −8.78 (8.56) mmHg
- Mean (SD) Automated Office-Measured Diastolic Blood Pressure at Wk 8 (Seated SBP Tertile Low): 73.86 (11.01) mmHg
- Mean (SD) Change from Baseline at Week 8 in Automated Office-Measured Diastolic Blood Pressure (Seated SBP Tertile Low): −0.29 (6.44) mmHg
- Mean (SD) Automated Office-Measured Diastolic Blood Pressure at Wk 8 (Seated SBP Tertile Middle): 73.22 (5.97) mmHg
- Mean (SD) Change from Baseline at Week 8 in Automated Office-Measured Diastolic Blood Pressure (Seated SBP Tertile Middle): 6.17 (6.64) mmHg
- Mean (SD) Automated Office-Measured Diastolic Blood Pressure at Wk 8 (Sex Female): 70.87 (10.51) mmHg
- Mean (SD) Automated Office-Measured Systolic Blood Pressure at Wk 8 (Sex Female): 132.40 (15.95) mmHg
- Mean (SD) Change from Baseline at Week 8 in Automated Office-Measured Diastolic Blood Pressure (Sex Female): −3.67 (7.27) mmHg
- Mean (SD) Change from Baseline at Week 8 in Automated Office-Measured Systolic Blood Pressure (Sex Female): −13.17 (12.05) mmHg
- Mean (SD) Automated Office-Measured Diastolic Blood Pressure at Wk 8 (Sex Male): 76.20 (6.81) mmHg
- Mean (SD) Automated Office-Measured Systolic Blood Pressure at Wk 8 (Sex Male): 129.60 (11.45) mmHg
- Mean (SD) Change from Baseline at Week 8 in Automated Office-Measured Diastolic Blood Pressure (Sex Male): −8.15 (8.28) mmHg
- Mean (SD) Change from Baseline at Week 8 in Automated Office-Measured Systolic Blood Pressure (Sex Male): −15.45 (15.48) mmHg
- Mean (SD) Automated Office-Measured Systolic Blood Pressure at Wk 8 [1]: 139.11 (15.36) mmHg
- Mean (SD) Change from Baseline at Week 8 in Automated Office-Measured Systolic Blood Pressure [1]: −19.06 (12.91) mmHg
- Mean (SD) Automated Office-Measured Systolic Blood Pressure at Wk 8 [2]: 129.86 (9.26) mmHg
- Mean (SD) Change from Baseline at Week 8 in Automated Office-Measured Systolic Blood Pressure [2]: −4.71 (8.58) mmHg
- Mean (SD) Automated Office-Measured Systolic Blood Pressure at Wk 8 [3]: 124.56 (13.30) mmHg
- Mean (SD) Change from Baseline at Week 8 in Automated Office-Measured Systolic Blood Pressure [3]: −16.39 (13.97) mmHg
- Automated Office-Measured Diastolic Blood Pressure, Week 8, Mean (SD) [4]: 72.40 (10.54) mmHg
- Mean (SD) Automated Office-Measured Systolic Blood Pressure at Wk 8 [4]: 135.80 (9.10) mmHg
